From patent US8748417B2, “Amino-pyrrolidine-azetidine diamides as monoacylglycerol lipase inhibitors” (Janssen Pharmaceutica, NV, priority 2010, dated 2014)

How the values were obtained:
[1] = target: T1, purified wild type MGL (wt-MGLL 6H-11-313) (Homo sapiens, UniProt Q99685); assay: MGL enzyme activity assay (4MU-B cleavage), wild type MGL; format: biochemical; conditions: wild type MGL 5 nM, 4MU-B 10 μM, 37° C.; read-out: MGL wild type inh IC50
T1 construct: purified wild type MGL (wt-MGLL 6H-11-313)
T1 sequence (Q99685 1-303): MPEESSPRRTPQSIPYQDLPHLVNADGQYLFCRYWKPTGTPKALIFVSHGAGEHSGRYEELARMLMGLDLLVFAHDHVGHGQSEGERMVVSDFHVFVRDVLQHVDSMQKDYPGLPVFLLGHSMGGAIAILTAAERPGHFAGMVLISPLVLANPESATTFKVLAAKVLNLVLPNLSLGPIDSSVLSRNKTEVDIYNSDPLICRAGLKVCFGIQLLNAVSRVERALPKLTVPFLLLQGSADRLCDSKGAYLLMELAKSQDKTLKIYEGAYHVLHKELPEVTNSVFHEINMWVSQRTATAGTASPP
How it was run: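 Enzyme in 20 mM PIPES pH 7.0, 150 mM NaCl, 0.001% Tween 20 with 4MU-B at 10 μM final and MGL at 5 nM final; compounds 17 to 0.0003 μM final, enzyme added last. Fluorescence (ex 335/em 440 nm) followed at 37° C for 5 min; IC50 from fit of fractional activity versus inhibitor concentration.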

[2] = system: MGL (rat brain homogenate); assay: 2-AG accumulation assay in rat brain homogenate; format: biochemical; conditions: compound 1 μM, percent of vehicle 2-AG accumulation
Procedure: After a 15-min incubation time at 37° C., CaCl2 (final concentration=10 mM) was added and then incubated for 15 min at 37° C. in a total volume of 5 mL. The reactions were stopped with 6 mL organic solvent extraction solution of 2:1 chloroform/methanol. Accumulated 2-AG in the organic phase was measured by a HPLC/MS method, according to the following equation: percent vehicle=(2-AG accumulation in the presence of compound/2-AG accumulation in vehicle)×100.

Row | SMILES | IC50 [1] [nM] | Rat Brain 2AG % VehCntrl (%) @1 μM [2] [%]
1 | Cc1cc(-c2cccc(C(F)(F)F)c2)ccc1C(=O)N1CC(N[C@H]2CCN(C(=O)c3nccs3)C2)C1 [Cpd 117, (3S)-N-(1-{[3-Methyl-3′-(trifluoromethyl)biphenyl-4-yl]carbonyl}azetidin-3-yl)-1-(1,3-thiazol-2-ylcarbonyl)pyrrolidin-3-amine] | < 5 | 400
2 | O=C(c1ccc2c(ccn2-c2ccc(C(F)(F)F)cc2)c1)N1CC(N[C@H]2CCN(C(=O)c3nccs3)C2)C1 [Cpd 118, (3S)-1-(1,3-Thiazol-2-ylcarbonyl)-N-[1-({1-[4-(trifluoromethyl)phenyl]-1H-indol-5-yl}carbonyl)azetidin-3-yl]pyrrolidin-3-amine] | < 5 | 626
3 | O=C(c1ccc2c(ccn2-c2ncccn2)c1)N1CC(N[C@H]2CCN(C(=O)c3nccs3)C2)C1 [Cpd 119, (3S)-N-{1-[(1-Pyrimidin-2-yl-1H-indol-5-yl)carbonyl]azetidin-3-yl}-1-(1,3-thiazol-2-ylcarbonyl)pyrrolidin-3-amine] | 48.8 | 255
4 | O=C(c1ccccc1)N1CC[C@H](NC2CN(C(=O)c3cc4cc(-c5ccc(Cl)s5)ccc4o3)C2)C1 [Cpd 122, (3S)-N-(1-{[5-(5-Chlorothiophen-2-yl)-1-benzofuran-2-yl]carbonyl}azetidin-3-yl)-1-(phenylcarbonyl)pyrrolidin-3-amine] | 59.7 | 152
5 | Cc1c(C(=O)N2CC(N[C@H]3CCN(C(=O)c4cscn4)C3)C2)sc2ccc(-c3ccccc3)cc12 [Cpd 123, (3S)-N-{1-[(3-Methyl-5-phenyl-1-benzothiophen-2-yl)carbonyl]azetidin-3-yl}-1-(1,3-thiazol-4-ylcarbonyl)pyrrolidin-3-amine] | < 5 | 661
6 | O=C(c1cscn1)N1CC[C@H](NC2CN(C(=O)c3cc4ccc(-c5ccccc5)cc4s3)C2)C1 [Cpd 124, (3S)-N-{1-[(6-Phenyl-1-benzothiophen-2-yl)carbonyl]azetidin-3-yl}-1-(1,3-thiazol-4-ylcarbonyl)pyrrolidin-3-amine] | 6 | 227
7 | O=C(c1ccc(Cc2cccc(C(F)(F)F)c2)cc1)N1CC(N[C@H]2CCN(C(=O)c3ccccc3)C2)C1 [Cpd 126, (3S)-1-(Phenylcarbonyl)-N-[1-({4-[3-(trifluoromethyl)benzyl]phenyl}carbonyl)azetidin-3-yl]pyrrolidin-3-amine] | < 5 | 715
8 | O=C(c1ccc(Cc2cccc(C(F)(F)F)c2)cc1)N1CC(N[C@H]2CCN(C(=O)c3cscn3)C2)C1 [Cpd 127, (3S)-1-(1,3-Thiazol-4-ylcarbonyl)-N-[1-({4-[3-(trifluoromethyl)benzyl]phenyl}carbonyl)azetidin-3-yl]pyrrolidin-3-amine] | < 5 | 618
9 | O=C(c1cscn1)N1CC[C@H](NC2CN(C(=O)c3cc4ccc(-c5ccc(C(F)(F)F)cc5)cc4s3)C2)C1 [Cpd 128, (3S)-1-(1,3-Thiazol-4-ylcarbonyl)-N-[1-({6-[4-(trifluoromethyl)phenyl]-1-benzothiophen-2-yl}carbonyl)azetidin-3-yl]pyrrolidin-3-amine] | 5 | 491
10 | O=C(c1cc2cc(-c3ccccc3)ccc2s1)N1CC(N[C@H]2CCN(C(=O)c3nccs3)C2)C1 [Cpd 129, (3S)-N-{1-[(5-Phenyl-1-benzothiophen-2-yl)carbonyl]azetidin-3-yl}-1-(1,3-thiazol-2-ylcarbonyl)pyrrolidin-3-amine] | < 5 | 590
11 | O=C(c1cscn1)N1CC[C@H](NC2CN(C(=O)c3cc4cc(-c5cccc(C(F)(F)F)c5)ccc4s3)C2)C1 [Cpd 130, (3S)-1-(1,3-Thiazol-4-ylcarbonyl)-N-[1-({5-[3-(trifluoromethyl)phenyl]-1-benzothiophen-2-yl}carbonyl)azetidin-3-yl]pyrrolidin-3-amine] | < 5 | 747
12 | O=C(c1cscn1)N1CC[C@H](NC2CN(C(=O)c3cc4cc(-c5ccccc5)ccc4s3)C2)C1 [Cpd 131, (3S)-N-{1-[(5-Phenyl-1-benzothiophen-2-yl)carbonyl]azetidin-3-yl}-1-(1,3-thiazol-4-ylcarbonyl)pyrrolidin-3-amine] | < 5 | 385
13 | O=C(c1cc2cc(-c3cccc(C(F)(F)F)c3)ccc2s1)N1CC(N[C@H]2CCN(C(=O)c3nccs3)C2)C1 [Cpd 132, (3S)-1-(1,3-Thiazol-2-ylcarbonyl)-N-[1-({5-[3-(trifluoromethyl)phenyl]-1-benzothiophen-2-yl}carbonyl)azetidin-3-yl]pyrrolidin-3-amine] | < 5 | 1233
14 | O=C(c1cc2ccc(C(F)(F)F)cc2s1)N1CC(N[C@H]2CCN(C(=O)c3nccs3)C2)C1 [Cpd 138, (3S)-1-(1,3-Thiazol-2-ylcarbonyl)-N-(1-{[6-(trifluoromethyl)-1-benzothiophen-2-yl]carbonyl}azetidin-3-yl)pyrrolidin-3-amine] | 16 | 340
15 | O=C(c1nccs1)N1CC[C@H](NC2CN(C(=O)c3sc4cc(Br)ccc4c3Cl)C2)C1 [Cpd 140, (3S)-N-{1-[(6-Bromo-3-chloro-1-benzothiophen-2-yl)carbonyl]azetidin-3-yl}-1-(1,3-thiazol-2-ylcarbonyl)pyrrolidin-3-amine] | 12.4 | 742
16 | O=C(c1cscn1)N1CC[C@H](NC2CN(C(=O)c3sc4cc(Br)ccc4c3Cl)C2)C1 [Cpd 141, (3S)-N-{1-[(6-Bromo-3-chloro-1-benzothiophen-2-yl)carbonyl]azetidin-3-yl}-1-(1,3-thiazol-4-ylcarbonyl)pyrrolidin-3-amine] | 19 | 388
17 | O=C(c1ccc2c(c1)c(F)cn2-c1ccc(F)cc1)N1CC(N[C@H]2CCN(C(=O)c3ccccc3)C2)C1 [Cpd 142, (3S)-N-(1-{[3-Fluoro-1-(4-fluorophenyl)-1H-indol-5-yl]carbonyl}azetidin-3-yl)-1-(phenylcarbonyl)pyrrolidin-3-amine] | 56.5 | 247
18 | O=C(c1ccc2c(c1)c(F)cn2-c1ccc(F)cc1)N1CC(N[C@H]2CCN(C(=O)c3cscn3)C2)C1 [Cpd 143, (3S)-N-(1-{[3-Fluoro-1-(4-fluorophenyl)-1H-indol-5-yl]carbonyl}azetidin-3-yl)-1-(1,3-thiazol-4-ylcarbonyl)pyrrolidin-3-amine] | 46.5 | 244
19 | O=C(c1ccc(Cc2ccc(C(F)(F)F)cc2)cc1)N1CC(N[C@H]2CCN(C(=O)c3cscn3)C2)C1 [Cpd 144, (3S)-1-(1,3-Thiazol-4-ylcarbonyl)-N-[1-({4-[4-(trifluoromethyl)benzyl]phenyl}carbonyl)azetidin-3-yl]pyrrolidin-3-amine] | < 5 | 992
20 | O=C(c1ccc(-c2ccc(C(F)(F)F)cc2)cc1)N1CC(N[C@H]2CCN(C(=O)c3cscn3)C2)C1 [Cpd 145, (3S)-1-(1,3-Thiazol-4-ylcarbonyl)-N-(1-{[4′-(trifluoromethyl)biphenyl-4-yl]carbonyl}azetidin-3-yl)pyrrolidin-3-amine] | 96.4 | 193
